Measurements: PubChem BioAssay (NCI)
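Briefly, cells in 96-well plates were exposed to five compound concentrations for 48 h, and endpoints were estimated by linear interpolation. TGI: concentration producing complete growth inhibition.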

Assays:
Assay in all cases: NCI-60 cell line screen, 48 h
HOP-62 NSCLC = system: HOP-62 NSCLC
UO-31 renal = system: UO-31 renal
RXF 393 renal = system: RXF 393 renal
TK-10 renal = system: TK-10 renal
SK-MEL-28 melanoma = system: SK-MEL-28 melanoma
KM20L2 colon = system: KM20L2 colon
OVCAR-3 ovarian = system: OVCAR-3 ovarian
HT29 colon = system: HT29 colon
MOLT-4 leukemia = system: MOLT-4 leukemia
UACC-257 melanoma = system: UACC-257 melanoma
HOP-18 NSCLC = system: HOP-18 NSCLC
SNB-19 CNS = system: SNB-19 CNS
COLO 205 colon = system: COLO 205 colon
U251 CNS = system: U251 CNS
M19-MEL melanoma = system: M19-MEL melanoma
SF-268 CNS = system: SF-268 CNS
M14 melanoma = system: M14 melanoma
KM12 colon = system: KM12 colon
HL-60(TB) leukemia = system: HL-60(TB) leukemia
OVCAR-4 ovarian = system: OVCAR-4 ovarian
OVCAR-8 ovarian = system: OVCAR-8 ovarian
SK-MEL-5 melanoma = system: SK-MEL-5 melanoma
RPMI-8226 leukemia = system: RPMI-8226 leukemia
HOP-92 NSCLC = system: HOP-92 NSCLC
HCT-15 colon = system: HCT-15 colon
SW-620 colon = system: SW-620 colon
SNB-75 CNS = system: SNB-75 CNS
SK-MEL-2 melanoma = system: SK-MEL-2 melanoma
HCC-2998 colon = system: HCC-2998 colon
LXFL 529 NSCLC = system: LXFL 529 NSCLC
NCI-H460 lung = system: NCI-H460 lung
DMS 114 small cell lung = system: DMS 114 small cell lung
OVCAR-5 ovarian = system: OVCAR-5 ovarian
HCT-116 colon = system: HCT-116 colon
LOX IMVI melanoma = system: LOX IMVI melanoma
SR leukemia = system: SR leukemia
K-562 leukemia = system: K-562 leukemia
ACHN renal = system: ACHN renal
IGROV1 ovarian = system: IGROV1 ovarian
SF-539 CNS = system: SF-539 CNS
UACC-62 melanoma = system: UACC-62 melanoma
CCRF-CEM leukemia = system: CCRF-CEM leukemia
NCI-H23 lung = system: NCI-H23 lung
A549 NSCLC = system: A549 NSCLC
SN12C renal = system: SN12C renal
SNB-78 CNS = system: SNB-78 CNS
DMS 273 small cell lung = system: DMS 273 small cell lung
EKVX NSCLC = system: EKVX NSCLC
DLD-1 colon = system: DLD-1 colon
NCI-H522 lung = system: NCI-H522 lung
CAKI-1 renal = system: CAKI-1 renal
NCI-H226 lung = system: NCI-H226 lung
RXF-631 renal = system: RXF-631 renal
XF 498 CNS = system: XF 498 CNS
786-0 renal = system: 786-0 renal
SF-295 CNS = system: SF-295 CNS
MALME-3M melanoma = system: MALME-3M melanoma
A498 renal = system: A498 renal
SK-OV-3 ovarian = system: SK-OV-3 ovarian

Cc1cc(=O)[nH]c(NN2C(Cl)C(=O)C2c2cccc(O)c2)n1 (stereo unspecified)
TGI (HOP-62 NSCLC): > 100 µM
TGI (UO-31 renal): 24.7 µM
TGI (RXF 393 renal): > 100 µM
TGI (TK-10 renal): > 100 µM
TGI (SK-MEL-28 melanoma): > 100 µM
TGI (KM20L2 colon): 98.5 µM
TGI (OVCAR-3 ovarian): 27.4 µM
TGI (HT29 colon): > 100 µM
TGI (MOLT-4 leukemia): > 100 µM
TGI (UACC-257 melanoma): > 100 µM
TGI (HOP-18 NSCLC): > 100 µM
TGI (SNB-19 CNS): > 100 µM
TGI (COLO 205 colon): > 100 µM
TGI (U251 CNS): > 100 µM
TGI (M19-MEL melanoma): > 100 µM
TGI (SF-268 CNS): > 100 µM
TGI (M14 melanoma): > 100 µM
TGI (KM12 colon): > 100 µM
TGI (HL-60(TB) leukemia): 29.8 µM
TGI (OVCAR-4 ovarian): > 100 µM
TGI (OVCAR-8 ovarian): > 100 µM
TGI (SK-MEL-5 melanoma): > 100 µM
TGI (RPMI-8226 leukemia): > 100 µM
TGI (HOP-92 NSCLC): > 100 µM
TGI (HCT-15 colon): > 100 µM
TGI (SW-620 colon): > 100 µM
TGI (SNB-75 CNS): 6.73 µM
TGI (SK-MEL-2 melanoma): > 100 µM
TGI (HCC-2998 colon): > 100 µM
TGI (LXFL 529 NSCLC): > 100 µM
TGI (NCI-H460 lung): > 100 µM
TGI (DMS 114 small cell lung): 34.8 µM
TGI (OVCAR-5 ovarian): > 100 µM
TGI (HCT-116 colon): > 100 µM
TGI (LOX IMVI melanoma): > 100 µM
TGI (SR leukemia): > 100 µM
TGI (K-562 leukemia): > 100 µM
TGI (ACHN renal): > 100 µM
TGI (IGROV1 ovarian): > 100 µM
TGI (SF-539 CNS): 31.6 µM
TGI (UACC-62 melanoma): 17.8 µM
TGI (CCRF-CEM leukemia): > 100 µM
TGI (NCI-H23 lung): > 100 µM
TGI (A549 NSCLC): > 100 µM
TGI (SN12C renal): > 100 µM
TGI (SNB-78 CNS): > 100 µM
TGI (DMS 273 small cell lung): > 100 µM
TGI (EKVX NSCLC): > 100 µM

CC(C)(C)[SiH]12(OC(C(F)(F)F)(C(F)(F)F)c3ccccc31)OC(C(F)(F)F)(C(F)(F)F)c1ccccc12
TGI (UO-31 renal): 19.2 µM
TGI (TK-10 renal): 26.3 µM
TGI (SK-MEL-28 melanoma): 28.4 µM
TGI (DLD-1 colon): 13.3 µM
TGI (KM20L2 colon): 7.83 µM
TGI (OVCAR-3 ovarian): 16.6 µM
TGI (HT29 colon): 13.2 µM
TGI (MOLT-4 leukemia): 5.41 µM
TGI (UACC-257 melanoma): 27.7 µM
TGI (HOP-18 NSCLC): 9.83 µM
TGI (SNB-19 CNS): 13.1 µM
TGI (COLO 205 colon): 21 µM
TGI (U251 CNS): 6.19 µM
TGI (M19-MEL melanoma): 26.4 µM
TGI (NCI-H522 lung): 17.7 µM
TGI (M14 melanoma): 12.7 µM
TGI (KM12 colon): 15.3 µM
TGI (OVCAR-4 ovarian): 19.7 µM
TGI (OVCAR-8 ovarian): 28.9 µM
TGI (SK-MEL-5 melanoma): 22.1 µM
TGI (RPMI-8226 leukemia): > 100 µM
TGI (CAKI-1 renal): 25.3 µM
TGI (HCT-15 colon): 4.77 µM
TGI (SW-620 colon): 18.1 µM
TGI (NCI-H226 lung): 5.05 µM
TGI (SNB-75 CNS): 7.18 µM
TGI (SK-MEL-2 melanoma): 31.1 µM
TGI (HCC-2998 colon): 12.9 µM
TGI (LXFL 529 NSCLC): 16.2 µM
TGI (NCI-H460 lung): 6.68 µM
TGI (DMS 114 small cell lung): 22.3 µM
TGI (RXF-631 renal): 10.7 µM
TGI (OVCAR-5 ovarian): 6.25 µM
TGI (XF 498 CNS): 24.3 µM
TGI (HCT-116 colon): 13 µM
TGI (SR leukemia): 6.38 µM
TGI (K-562 leukemia): 18.2 µM
TGI (ACHN renal): 21.7 µM
TGI (SF-539 CNS): 6.54 µM
TGI (786-0 renal): 11.1 µM
TGI (SF-295 CNS): 8.41 µM
TGI (NCI-H23 lung): 9.64 µM
TGI (MALME-3M melanoma): 31 µM
TGI (A549 NSCLC): 19.9 µM
TGI (SN12C renal): 19.4 µM
TGI (SNB-78 CNS): 25.3 µM
TGI (DMS 273 small cell lung): 24.3 µM
TGI (EKVX NSCLC): 14.1 µM

S=C(N/N=C/c1ccco1)NC12CC3CC(CC(C3)C1)C2
TGI (HOP-62 NSCLC): > 100 µM
TGI (UO-31 renal): > 100 µM
TGI (RXF 393 renal): > 100 µM
TGI (TK-10 renal): > 100 µM
TGI (SK-MEL-28 melanoma): > 100 µM
TGI (A498 renal): > 100 µM
TGI (DLD-1 colon): > 100 µM
TGI (KM20L2 colon): > 100 µM
TGI (OVCAR-3 ovarian): > 100 µM
TGI (HT29 colon): > 100 µM
TGI (MOLT-4 leukemia): > 100 µM
TGI (UACC-257 melanoma): > 100 µM
TGI (HOP-18 NSCLC): > 100 µM
TGI (SNB-19 CNS): > 100 µM
TGI (COLO 205 colon): 33.4 µM
TGI (U251 CNS): > 100 µM
TGI (M19-MEL melanoma): > 100 µM
TGI (NCI-H522 lung): > 100 µM
TGI (SF-268 CNS): > 100 µM
TGI (M14 melanoma): > 100 µM
TGI (KM12 colon): > 100 µM
TGI (OVCAR-4 ovarian): > 100 µM
TGI (OVCAR-8 ovarian): > 100 µM
TGI (SK-MEL-5 melanoma): > 100 µM
TGI (CAKI-1 renal): > 100 µM
TGI (HOP-92 NSCLC): > 100 µM
TGI (HCT-15 colon): > 100 µM
TGI (SW-620 colon): > 100 µM
TGI (NCI-H226 lung): > 100 µM
TGI (SNB-75 CNS): > 100 µM
TGI (SK-MEL-2 melanoma): > 100 µM
TGI (HCC-2998 colon): > 100 µM
TGI (LXFL 529 NSCLC): > 100 µM
TGI (NCI-H460 lung): > 100 µM
TGI (DMS 114 small cell lung): > 100 µM
TGI (OVCAR-5 ovarian): > 100 µM
TGI (XF 498 CNS): > 100 µM
TGI (HCT-116 colon): > 100 µM
TGI (LOX IMVI melanoma): > 100 µM
TGI (K-562 leukemia): > 100 µM
TGI (ACHN renal): > 100 µM
TGI (IGROV1 ovarian): > 100 µM
TGI (SF-539 CNS): > 100 µM
TGI (786-0 renal): > 100 µM
TGI (SF-295 CNS): > 100 µM
TGI (UACC-62 melanoma): > 100 µM
TGI (CCRF-CEM leukemia): > 100 µM
TGI (NCI-H23 lung): > 100 µM
TGI (MALME-3M melanoma): > 100 µM
TGI (A549 NSCLC): > 100 µM
TGI (SN12C renal): > 100 µM
TGI (SNB-78 CNS): > 100 µM
TGI (DMS 273 small cell lung): > 100 µM
TGI (EKVX NSCLC): > 100 µM
TGI (SK-OV-3 ovarian): > 100 µM
